Reference: paper PMC9456400 (International Journal of Molecular Sciences, 2022)
pIC50: −log10 of the molar value. Each block holds one molecule with its values, some of them ahead of it.

Tests used:
recombinant human CYP3A4 = recombinant human CYP3A4 (Homo sapiens, UniProt P08684); test: Vivid CYP450 Red screening assay (BOMR substrate, baculosomes)
Method: The Vivid® BOMR substrate is a blocked dye that yields a minimal fluorescence signal until metabolized by CYP3A4 into products that are highly fluorescent in aqueous solutions (Figure 5, left panel).
The stringent validation process ensures the highest quality data possible for the 10-point titration, which was performed in duplicate (n = 3). An additional two control wells for each compound concentration tested are conducted to detect autofluorescent compound interference.

Huh-7 cells [1] = test: Colorimetric enzymatic quantification of cholesteryl esters and triglycerides; type: cell-based, human; conditions: lorlatinib-treated (1 μmol/L) Huh-7 cells, silibinin 100 μmol/L, 48 h
[2] = standard doses of silibinin-containing milk thistle preparations ref 57; cited from earlier work
Huh-7 cells [3] = test: Toxicity of the combination in long-term confluent Huh-7 cells; type: cell-based, human; conditions: silibinin as high as 100 μmol/L, Huh-7 growing confluent for more than 1 month
Source text: Our multi-faceted approach involving computational modeling, neural network-based prediction models to classify CYP inhibition, and in vitro validation using recombinant human CYP3A4, confirms and further extends the notion that exposure to standard doses of silibinin-containing milk thistle preparations leading to relatively low peak systemic concentrations (1–10 μmol/L) are expected to be accompanied by low-risk for an inhibitory interaction of the first-pass clearance of lorlatinib at the hepatic level.

Huh-7 cells [4] = test: Oil Red O and LipidTOX staining of neutral lipids; type: cell-based, human; conditions: Huh-7, chronic exposure 7 days; silibinin 10 μmol/L as co-treatment with lorlatinib
Method: We first employed a conventional index of fatty liver disease––the intracellular accumulation of neutral lipids (steatosis)––to confirm the ability of lorlatinib to trigger hypertriglyceridemia and hypercholesteremia.
(§1) For assessment of neutral lipid formation, cells were washed in PBS, fixed with 4% paraformaldehyde for 30 min, washed in distilled water, and then briefly incubated in 60% isopropanol. Following equilibration, cells were stained with a working solution (60%) of Oil Red O for 20 min. An Oil Red O stock solution was prepared by dissolving 0.35% w/v Oil Red O in 100 mL 100% isopropanol. HCS LipidTOX™ Green Neutral Lipid Stain (Invitrogen; Cat. #H34475) was employed as a second staining cocktail for visualization of intracellular neutral lipids. Formaldehyde fixation and preparing/using the labeling solution was carried out as per the manufacturer’s instructions.

HepG2 cells = test: Oil Red O staining of neutral lipids; type: cell-based, human; conditions: HepG2, acute exposure 48 h; silibinin 100 μmol/L as co-treatment with lorlatinib
Method: To confirm these findings, we employed an independent in vitro model of fatty liver disease involving non-tumorigenic HepG2 cells, which are routinely employed as an inducible fatty liver cell model to screen for therapeutic drugs to eliminate lipid accumulation.
as §1

Huh-7 cells [5] = test: UHPLC-ESI-QTOF-MS/MS lipidomics; type: cell-based, human
Source text: We then questioned whether lorlatinib used at concentrations efficacious against ALK-rearranged lung cancer cells but non-toxic to ALK-negative cells could promote substantial lipidome changes in Huh-7 cells (Figure 1B; Table 1). Accordingly, […], and the lipidome was characterized in a semi-targeted approach using a UHPLC-ESI-QTOF-MS/MS method, in which we matched mass spectra with commercial standards (SPLAH mix), databases such as METLIN-PCDL and Lipid MAPS (accessed on 1 July 2022), as well as corroboration of tentative lipid species upon obtaining their MS/MS spectrum. Representative chromatograms of lipidomic analyses in Huh-7 cells can be found in Figure S1.
Lipid extraction, preparation of external calibration curves, and quality control approaches were carried out as described. Samples (2 μL) were injected directly into a 1290 Infinity UHPLC system coupled with a dual Agilent jet stream ESI source to a 6550 QTOF-MS instrument (Agilent Technologies, Santa Clara, CA, USA). UHPLC-ESI-QTOF-MS conditions, data analysis and indirect quantification of selected lipid species using MassHunter Qualitative Analysis B.07.00 software (Agilent Technologies), and corroboration of the tentative characterization of compound match entities using the Lipid Maps database (www.lipidmaps.org, accessed on 1 July 2022) and targeted MS/MS acquisition on LC-QTOF-MS instrument, have been previously described in detail.
Differentially expressed lipid species from untargeted lipidomic data were analyzed by generating volcano plots indicating statistical significance versus magnitude of fold-change for each lipid species (cutoff of Benjamini–Hochberg corrected p-value < 0.05 and log2 fold-change > 1 or […]).

Chain of recombinant human CYP3A4 (P08684 whole entry): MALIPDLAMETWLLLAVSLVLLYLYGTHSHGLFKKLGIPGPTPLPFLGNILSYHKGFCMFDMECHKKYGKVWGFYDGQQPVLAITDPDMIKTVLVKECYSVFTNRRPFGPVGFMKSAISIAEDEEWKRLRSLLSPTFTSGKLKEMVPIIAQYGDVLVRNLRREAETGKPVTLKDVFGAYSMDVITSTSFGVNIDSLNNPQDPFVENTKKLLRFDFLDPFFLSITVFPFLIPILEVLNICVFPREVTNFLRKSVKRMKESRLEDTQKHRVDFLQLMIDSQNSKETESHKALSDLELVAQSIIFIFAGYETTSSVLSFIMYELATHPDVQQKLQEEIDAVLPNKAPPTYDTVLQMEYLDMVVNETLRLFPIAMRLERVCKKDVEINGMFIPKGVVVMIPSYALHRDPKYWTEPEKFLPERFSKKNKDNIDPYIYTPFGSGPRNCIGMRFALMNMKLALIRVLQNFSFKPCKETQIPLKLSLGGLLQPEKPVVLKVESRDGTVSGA

- pIC50 (recombinant human CYP3A4): < 3.52
SMILES: CC(C)c1nc(N(C)S(C)(=O)=O)nc(-c2ccc(F)cc2)c1/C=C/[C@@H](O)C[C@@H](O)CC(=O)O [rosuvastatin]

SMILES: COc1cc(C2Oc3cc([C@H]4Oc5cc(O)cc(O)c5C(=O)[C@@H]4O)ccc3OC2CO)ccc1O (some centres unmarked) [silibinin]
- Accumulation of cholesterol esters and triglycerides (Huh-7 cells [1]): inhibit the accumulation of cholesterol esters and triglycerides
- Peak systemic concentrations [2]: 1 to 10 µmol/L
- Toxic effects of the combination with lorlatinib (Huh-7 cells [3]): failed to observed significant toxic effects
- Accumulation of neutral lipids (lipid droplets) (Huh-7 cells [4]): notably decreased the quantity and size of the lipid droplets
- Accumulation of neutral lipids (lipid droplets) (HepG2 cells): markedly fewer and smaller neutral lipid depots
- Change of lipid species, single agent (Huh-7 cells [5]; Huh-7, 48 h, lorlatinib 1 μmol/L, silibinin 100 μmol/L): significantly lowered the baseline abundance of many ChoE species
- Effect of co-treatment on lorlatinib-induced rise of lipid species (Huh-7 cells [5]; Huh-7, silibinin 100 μmol/L with lorlatinib 1 μmol/L, 48 h): completely blunted the significant lorlatinib-induced rise in numerous ChoE and TG/DG species
